Our source for the AC50 values is ChEMBL document CHEMBL5291721, “A preclinical secondary pharmacology resource illuminates target-adverse drug reaction associations of marketed drugs” (Nat Commun, 2023).

A value given as a limit tells only on which side of the number the result lay.

In test [1] the target is T1, Adenosine receptor A3 (Homo sapiens, UniProt P0DMS8).
T1 sequence (P0DMS8 whole entry): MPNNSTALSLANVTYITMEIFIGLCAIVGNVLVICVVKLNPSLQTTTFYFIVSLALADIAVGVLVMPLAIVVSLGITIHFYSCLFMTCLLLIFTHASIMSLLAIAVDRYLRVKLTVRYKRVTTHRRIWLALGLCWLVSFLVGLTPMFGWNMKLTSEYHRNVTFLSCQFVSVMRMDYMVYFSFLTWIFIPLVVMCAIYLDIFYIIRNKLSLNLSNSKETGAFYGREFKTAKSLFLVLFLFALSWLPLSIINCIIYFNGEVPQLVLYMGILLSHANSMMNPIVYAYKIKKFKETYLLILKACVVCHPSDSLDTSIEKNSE

Test [2] addresses Vascular endothelial growth factor receptor 2 (Homo sapiens, UniProt P35968). The class given is functional.
Test [3] concerns the target Voltage-dependent L-type calcium channel subunit alpha-1C (Rattus norvegicus, UniProt P22002). Type of test: functional.
Test [4] concerns the target T2, Gastrin/cholecystokinin type B receptor (Homo sapiens, UniProt P32239).
T2 sequence (P32239 whole entry): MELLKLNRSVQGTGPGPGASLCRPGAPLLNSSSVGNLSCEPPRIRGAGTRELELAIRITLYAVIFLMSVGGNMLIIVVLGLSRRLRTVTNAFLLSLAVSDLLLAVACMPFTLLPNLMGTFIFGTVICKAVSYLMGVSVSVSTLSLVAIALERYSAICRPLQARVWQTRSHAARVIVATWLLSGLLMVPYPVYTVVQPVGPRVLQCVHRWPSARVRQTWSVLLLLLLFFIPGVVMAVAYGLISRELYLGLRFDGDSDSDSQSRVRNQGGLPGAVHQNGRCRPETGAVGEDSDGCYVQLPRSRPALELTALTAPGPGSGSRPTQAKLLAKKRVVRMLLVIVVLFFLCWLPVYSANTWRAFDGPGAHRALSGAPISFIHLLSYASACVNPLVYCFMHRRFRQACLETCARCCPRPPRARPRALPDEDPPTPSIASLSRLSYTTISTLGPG

The target of test [5] is T3, 5-hydroxytryptamine receptor 1A (Homo sapiens, UniProt P08908).
T3 sequence (P08908 whole entry): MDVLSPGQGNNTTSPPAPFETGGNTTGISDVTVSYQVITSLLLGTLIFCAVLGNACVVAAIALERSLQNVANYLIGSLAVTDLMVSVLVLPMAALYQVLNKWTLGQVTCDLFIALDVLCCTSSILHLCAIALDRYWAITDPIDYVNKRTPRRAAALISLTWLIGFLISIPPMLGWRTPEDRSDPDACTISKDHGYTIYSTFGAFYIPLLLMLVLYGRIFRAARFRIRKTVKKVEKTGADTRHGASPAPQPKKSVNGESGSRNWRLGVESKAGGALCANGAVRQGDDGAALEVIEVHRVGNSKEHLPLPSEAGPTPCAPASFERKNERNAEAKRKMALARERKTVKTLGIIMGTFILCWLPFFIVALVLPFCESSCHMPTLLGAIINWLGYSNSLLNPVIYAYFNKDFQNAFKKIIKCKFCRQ
The class given is functional, cell-based.

Test [6] addresses Glutamate receptor ionotropic, NMDA 1 (Rattus norvegicus, UniProt P35439).
Test [7] has as its target Beta-2 adrenergic receptor (Homo sapiens, UniProt P07550).
Test [8] has as its target T4, Thromboxane A2 receptor (Homo sapiens, UniProt P21731).
T4 sequence (P21731 whole entry): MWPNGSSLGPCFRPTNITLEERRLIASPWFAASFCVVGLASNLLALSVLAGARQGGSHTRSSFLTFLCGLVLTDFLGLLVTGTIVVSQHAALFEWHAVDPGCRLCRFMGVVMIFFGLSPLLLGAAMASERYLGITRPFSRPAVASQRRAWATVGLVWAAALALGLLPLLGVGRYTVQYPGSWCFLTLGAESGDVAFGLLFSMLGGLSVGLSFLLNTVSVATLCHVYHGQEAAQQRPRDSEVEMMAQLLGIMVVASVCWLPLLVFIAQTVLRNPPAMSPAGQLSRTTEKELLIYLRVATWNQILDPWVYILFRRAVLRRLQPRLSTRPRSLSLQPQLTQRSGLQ

Test [9] has as its target 5-hydroxytryptamine receptor 2B (Homo sapiens, UniProt P41595). Type of test: functional, cell-based.
The target of test [10] is Delta-type opioid receptor (Homo sapiens, UniProt P41143).
Sequence of Delta-type opioid receptor (P41143 whole entry): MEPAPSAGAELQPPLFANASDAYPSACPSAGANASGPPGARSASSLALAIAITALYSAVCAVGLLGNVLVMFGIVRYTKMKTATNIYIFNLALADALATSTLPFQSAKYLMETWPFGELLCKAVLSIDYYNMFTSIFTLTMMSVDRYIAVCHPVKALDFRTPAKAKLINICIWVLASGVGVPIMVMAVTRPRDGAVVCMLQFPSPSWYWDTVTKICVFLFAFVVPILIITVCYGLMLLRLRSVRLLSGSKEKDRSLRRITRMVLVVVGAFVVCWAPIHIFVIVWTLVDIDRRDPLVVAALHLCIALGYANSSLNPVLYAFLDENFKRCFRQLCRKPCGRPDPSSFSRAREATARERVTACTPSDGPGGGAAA
The target in test [11] is Adenosine receptor A2a (Homo sapiens, UniProt P29274).
Sequence of Adenosine receptor A2a (P29274 whole entry): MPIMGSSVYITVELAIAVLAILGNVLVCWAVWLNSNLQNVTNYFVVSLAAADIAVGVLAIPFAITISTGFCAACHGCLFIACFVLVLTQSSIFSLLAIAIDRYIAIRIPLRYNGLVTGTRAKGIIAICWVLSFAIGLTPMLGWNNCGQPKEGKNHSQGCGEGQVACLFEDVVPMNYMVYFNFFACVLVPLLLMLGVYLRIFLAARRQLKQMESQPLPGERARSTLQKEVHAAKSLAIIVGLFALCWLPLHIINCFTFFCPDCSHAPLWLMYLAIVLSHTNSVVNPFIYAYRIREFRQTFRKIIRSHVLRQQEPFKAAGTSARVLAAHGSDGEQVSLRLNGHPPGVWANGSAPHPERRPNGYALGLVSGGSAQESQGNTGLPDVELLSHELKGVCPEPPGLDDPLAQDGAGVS
Test [12] deals with T5, Estrogen receptor (Homo sapiens, UniProt P03372).
T5 sequence (P03372 whole entry): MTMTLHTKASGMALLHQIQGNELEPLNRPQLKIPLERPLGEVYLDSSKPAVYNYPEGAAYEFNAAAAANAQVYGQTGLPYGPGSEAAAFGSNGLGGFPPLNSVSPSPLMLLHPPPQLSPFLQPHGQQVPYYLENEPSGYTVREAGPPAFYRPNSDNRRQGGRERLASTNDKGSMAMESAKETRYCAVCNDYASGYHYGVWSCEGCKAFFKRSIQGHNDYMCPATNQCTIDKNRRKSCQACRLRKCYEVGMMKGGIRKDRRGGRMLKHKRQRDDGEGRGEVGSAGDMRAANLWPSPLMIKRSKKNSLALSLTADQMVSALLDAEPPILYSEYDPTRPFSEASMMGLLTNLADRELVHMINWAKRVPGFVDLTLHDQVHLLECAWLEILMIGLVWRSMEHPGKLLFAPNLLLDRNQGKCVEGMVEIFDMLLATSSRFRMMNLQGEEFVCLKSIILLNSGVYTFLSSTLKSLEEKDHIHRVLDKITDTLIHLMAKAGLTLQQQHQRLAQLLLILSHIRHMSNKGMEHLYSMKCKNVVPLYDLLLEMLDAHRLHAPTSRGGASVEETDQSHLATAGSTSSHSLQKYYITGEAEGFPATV

The target of test [13] is Growth hormone secretagogue receptor type 1 (Homo sapiens, UniProt Q92847).
Sequence of Growth hormone secretagogue receptor type 1 (Q92847 whole entry): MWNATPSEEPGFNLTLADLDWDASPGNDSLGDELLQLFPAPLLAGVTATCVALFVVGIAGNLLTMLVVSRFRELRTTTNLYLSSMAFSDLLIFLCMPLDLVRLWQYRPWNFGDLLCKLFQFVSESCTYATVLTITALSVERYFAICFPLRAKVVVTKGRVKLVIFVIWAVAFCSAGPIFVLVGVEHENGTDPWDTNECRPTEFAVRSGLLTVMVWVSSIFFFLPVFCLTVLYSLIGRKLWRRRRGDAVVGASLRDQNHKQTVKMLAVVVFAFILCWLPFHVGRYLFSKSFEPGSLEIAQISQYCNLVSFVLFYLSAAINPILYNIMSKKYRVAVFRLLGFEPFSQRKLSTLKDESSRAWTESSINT
Also: assay procedure not described here.

Sequence of Voltage-dependent L-type calcium channel subunit alpha-1C (P22002 whole entry): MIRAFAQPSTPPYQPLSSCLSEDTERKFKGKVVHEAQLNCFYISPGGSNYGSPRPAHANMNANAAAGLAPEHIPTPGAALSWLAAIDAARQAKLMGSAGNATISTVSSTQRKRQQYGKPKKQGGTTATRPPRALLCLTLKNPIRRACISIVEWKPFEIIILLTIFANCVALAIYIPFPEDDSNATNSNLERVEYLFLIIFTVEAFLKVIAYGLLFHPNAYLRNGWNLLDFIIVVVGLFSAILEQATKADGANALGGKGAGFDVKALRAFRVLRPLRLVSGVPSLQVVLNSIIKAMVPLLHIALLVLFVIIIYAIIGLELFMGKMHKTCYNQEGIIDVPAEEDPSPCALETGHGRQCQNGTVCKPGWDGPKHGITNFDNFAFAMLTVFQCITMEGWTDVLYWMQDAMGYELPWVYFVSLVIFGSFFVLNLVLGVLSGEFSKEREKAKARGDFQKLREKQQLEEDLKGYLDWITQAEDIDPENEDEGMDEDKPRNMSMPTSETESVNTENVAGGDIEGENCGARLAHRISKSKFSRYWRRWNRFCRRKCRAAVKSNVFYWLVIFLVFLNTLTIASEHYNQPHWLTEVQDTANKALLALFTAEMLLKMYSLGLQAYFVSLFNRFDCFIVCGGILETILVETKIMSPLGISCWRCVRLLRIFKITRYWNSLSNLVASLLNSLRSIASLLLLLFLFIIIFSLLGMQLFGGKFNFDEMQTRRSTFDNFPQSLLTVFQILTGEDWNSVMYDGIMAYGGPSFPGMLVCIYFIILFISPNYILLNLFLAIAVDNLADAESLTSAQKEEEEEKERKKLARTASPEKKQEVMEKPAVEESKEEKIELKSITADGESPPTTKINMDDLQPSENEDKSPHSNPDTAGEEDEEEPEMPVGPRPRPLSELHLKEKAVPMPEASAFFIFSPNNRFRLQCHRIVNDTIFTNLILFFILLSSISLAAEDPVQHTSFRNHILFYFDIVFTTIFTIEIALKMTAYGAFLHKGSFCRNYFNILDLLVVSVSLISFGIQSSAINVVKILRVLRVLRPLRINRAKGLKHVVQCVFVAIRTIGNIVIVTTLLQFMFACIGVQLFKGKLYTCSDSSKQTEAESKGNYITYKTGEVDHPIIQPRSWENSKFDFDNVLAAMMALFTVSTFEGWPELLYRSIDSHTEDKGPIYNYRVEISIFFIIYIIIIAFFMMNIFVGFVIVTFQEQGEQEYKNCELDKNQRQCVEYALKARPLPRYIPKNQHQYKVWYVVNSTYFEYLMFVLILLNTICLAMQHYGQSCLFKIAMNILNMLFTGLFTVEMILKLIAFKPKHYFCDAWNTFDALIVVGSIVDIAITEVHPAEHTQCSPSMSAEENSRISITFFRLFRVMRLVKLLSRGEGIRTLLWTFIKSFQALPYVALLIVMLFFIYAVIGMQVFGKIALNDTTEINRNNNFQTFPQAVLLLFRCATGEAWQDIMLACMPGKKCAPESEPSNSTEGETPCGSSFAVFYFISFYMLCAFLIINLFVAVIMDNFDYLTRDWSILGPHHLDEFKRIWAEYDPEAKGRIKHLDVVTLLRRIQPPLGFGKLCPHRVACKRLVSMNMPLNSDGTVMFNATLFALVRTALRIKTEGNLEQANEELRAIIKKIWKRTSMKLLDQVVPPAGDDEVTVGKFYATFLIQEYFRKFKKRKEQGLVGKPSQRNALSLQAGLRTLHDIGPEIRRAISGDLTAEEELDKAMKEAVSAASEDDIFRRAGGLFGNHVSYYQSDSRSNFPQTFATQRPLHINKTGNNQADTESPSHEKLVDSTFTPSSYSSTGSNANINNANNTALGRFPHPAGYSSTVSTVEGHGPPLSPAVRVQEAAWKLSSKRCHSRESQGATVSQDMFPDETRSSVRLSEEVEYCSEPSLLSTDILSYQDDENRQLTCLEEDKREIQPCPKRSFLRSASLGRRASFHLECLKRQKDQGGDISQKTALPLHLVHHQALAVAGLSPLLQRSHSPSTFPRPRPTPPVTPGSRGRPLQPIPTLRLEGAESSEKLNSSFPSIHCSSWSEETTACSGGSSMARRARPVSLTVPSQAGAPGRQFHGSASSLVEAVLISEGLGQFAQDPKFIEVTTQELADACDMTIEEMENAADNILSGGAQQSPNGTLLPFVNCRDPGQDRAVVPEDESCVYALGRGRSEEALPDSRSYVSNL
Sequence of 5-hydroxytryptamine receptor 2B (P41595 whole entry): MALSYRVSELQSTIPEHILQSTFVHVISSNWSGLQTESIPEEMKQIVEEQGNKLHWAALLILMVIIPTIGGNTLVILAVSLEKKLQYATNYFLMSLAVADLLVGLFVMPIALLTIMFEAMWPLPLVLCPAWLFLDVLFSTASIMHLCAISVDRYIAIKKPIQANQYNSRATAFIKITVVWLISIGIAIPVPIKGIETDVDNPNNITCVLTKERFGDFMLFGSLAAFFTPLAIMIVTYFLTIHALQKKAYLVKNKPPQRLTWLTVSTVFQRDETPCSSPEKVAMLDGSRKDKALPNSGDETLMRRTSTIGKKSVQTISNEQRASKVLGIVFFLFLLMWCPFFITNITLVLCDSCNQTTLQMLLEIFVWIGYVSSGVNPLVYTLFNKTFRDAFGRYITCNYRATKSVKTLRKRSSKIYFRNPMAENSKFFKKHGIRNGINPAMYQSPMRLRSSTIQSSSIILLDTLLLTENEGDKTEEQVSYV
Sequence of Beta-2 adrenergic receptor (P07550 whole entry): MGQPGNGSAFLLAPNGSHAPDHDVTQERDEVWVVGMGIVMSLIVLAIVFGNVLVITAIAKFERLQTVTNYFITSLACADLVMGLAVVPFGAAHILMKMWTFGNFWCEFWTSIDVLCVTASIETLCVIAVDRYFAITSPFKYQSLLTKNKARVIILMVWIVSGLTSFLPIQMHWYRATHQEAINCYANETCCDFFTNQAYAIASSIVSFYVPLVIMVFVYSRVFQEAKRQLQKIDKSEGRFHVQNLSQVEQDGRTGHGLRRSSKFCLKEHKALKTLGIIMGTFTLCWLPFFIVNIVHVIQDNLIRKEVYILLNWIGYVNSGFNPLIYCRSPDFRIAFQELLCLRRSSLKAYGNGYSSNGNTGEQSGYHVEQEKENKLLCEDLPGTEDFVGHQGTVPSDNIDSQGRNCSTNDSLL

The term AC50 denotes the midpoint of the concentration-response curve, whichever way the signal moves. For the compound `COc1cccc(C(=O)CCN[C@@H](C)[C@H](O)c2ccccc2)c1` [OXYFEDRINE], the AC50 in [1] and in test [2] was above 30 µM in each case.
`C[C@@H]1C[C@H]2[C@@H]3C[C@H](F)C4=CC(=O)C=C[C@]4(C)[C@H]3[C@@H](O)C[C@]2(C)[C@@]1(O)C(=O)CO` [PARAMETHASONE]: the AC50 in test [1] and in [2] was above 30 µM each time.
On to `CC(OCCN1CCCCCC1)(c1ccccc1)c1ccc(Cl)cc1` (stereo unspecified) [SETASTINE], for which the AC50 in test [1] and in test [2] was above 30 µM in each case.
Regarding `Cc1ncc2c(c1O)COC2c1ccc(Cl)cc1` (stereo unspecified) [CICLETANINE], the AC50 in test [1] and in test [2] was above 30 µM in each case.
With `c1ccc2c(SC3=NCCN3)c[nH]c2c1` [TINAZOLINE], the AC50 in [1] and in [2] was above 30 µM in each case.
Take `CC(=O)[C@]1(N)Cc2c(O)c3c(c(O)c2[C@@H](O[C@H]2C[C@H](O)[C@H](O)CO2)C1)C(=O)c1ccccc1C3=O` [AMRUBICIN]: the AC50 in [1] and in test [2] was above 30 µM each time.
As for `CC(COc1ccccc1)NC(C)C(O)c1ccc(O)cc1` (stereo unspecified) [ISOXSUPRINE], the AC50 in test [1] and in test [2] was above 30 µM throughout.
Turning to `Clc1ccc(C(Cn2ccnc2)OCc2csc3c(Cl)cccc23)c(Cl)c1` (stereo unspecified) [SERTACONAZOLE], the figures for the AC50 in test [1] and in test [2] were 1.63 µM and above 30 µM, respectively.
The matching figures for `Cc1ccc(S(=O)(=O)NC(=O)NC2CCCCC2)cc1` [GLYCYCLAMIDE]: 12.7 µM and above 30 µM.
As to `COC(=O)C1=C(C)NC(C)=C(C(=O)OCCN2CCN(C(c3ccccc3)c3ccccc3)CC2)C1c1cccc([N+](=O)[O-])c1` (stereo unspecified) [MANIDIPINE 6300], the concentration at half-maximal activity (AC50) was 0.3 µM in test [3]; above 30 µM in test [4]; above 30 µM in [5]; above 30 µM in test [6]; above 30 µM in test [7]; above 30 µM in test [8]. For the same compound, the half-maximal activity concentration (AC50) in test [9] was above 30 µM; in test [10] it was above 30 µM; in test [11], above 30 µM; in test [12] it was above 1 µM; in test [13], above 30 µM.
In the case of `N#Cc1ccc(Oc2ccc3c(c2)COB3O)cc1` [CRISABOROLE], the AC50 in [1] and in test [2] was above 30 µM throughout.
For the compound `C[C@H](CCC(=O)O)[C@H]1CC[C@H]2[C@@H]3[C@H](O)C[C@@H]4C[C@H](O)CC[C@]4(C)[C@H]3C[C@H](O)[C@]12C` [CHOLIC ACID], the AC50 in test [1] and in test [2] was above 30 µM in each case.
As for `C=C1c2cccc(O)c2C(=O)C2=C(O)[C@]3(O)C(=O)C(C(N)=O)=C(O)[C@@H](N(C)C)[C@@H]3[C@@H](O)[C@H]12` [METHACYCLINE], the AC50 in [3] was above 10 µM; in test [4], above 30 µM; in test [5], above 10 µM; in test [6], above 10 µM; in [7], above 10 µM; in test [8] it was above 30 µM. Also, the AC50 is above 10 µM in test [9]; above 30 µM in [10]; above 30 µM in test [11]; above 30 µM in [12]; above 30 µM in test [13].
Regarding `CC(=O)[C@H]1CC[C@H]2[C@@H]3C=CC4=CC(=O)CC[C@@]4(C)[C@@H]3CC[C@]12C` [DYDROGESTERONE], the AC50 in test [1] was above 30 µM.
The same measure, in the same setting: as for `Cc1cn([C@H]2O[C@@H](CO)[C@H](O)[C@H]2F)c(=O)[nH]c1=O` [CLEVUDINE], the figure is above 30 µM.
Turning to `CN(Cc1cnc2nc(N)nc(N)c2n1)c1ccc(C(=O)N[C@@H](CCC(=O)O)C(=O)O)cc1` [METHOTREXATE], the AC50 in test [3] was above 10 µM; in [4], above 30 µM; in test [5] it was above 10 µM; in [6], above 10 µM; in test [7], above 10 µM; in test [8], above 30 µM. Moreover, the AC50 in test [9] is above 10 µM; in test [10], above 30 µM; in [11] it was above 30 µM; in [12], above 30 µM; in test [13], above 30 µM.
Regarding `OC[C@H]1O[C@@H](n2cnc3c2NC=NC[C@H]3O)C[C@@H]1O` [PENTOSTATIN], the AC50 was above 30 µM in [4]; above 30 µM in test [5]; above 30 µM in [6]; above 30 µM in test [9]; above 30 µM in test [10]; 3.4 µM in test [11]. Moreover, the AC50 in test [12] and in test [13] was above 30 µM each time.
For the compound `C[N+](C)(C)CCOP(=O)([O-])OC[C@H](O)CO`, the half-maximal activity concentration (AC50) in test [3], in test [4], in test [5], in [6], in test [7] and in test [8] was above 30 µM each time. In addition, the AC50 in test [9], in test [10], in [11], in [12] and in test [13] was above 30 µM in each case.
`CN[C@@H](C)[C@@H](O)c1ccccc1` [PSEUDOEPHEDRINE]: the AC50 in test [3] is above 10 µM; in test [4], above 30 µM; in [5], above 10 µM; in test [6], above 10 µM; in [7], above 10 µM; in test [8], above 30 µM. Also, the AC50 in test [9] is above 10 µM; in test [10], above 30 µM; in test [11], above 30 µM; in [12], above 30 µM; in test [13], above 30 µM.
Regarding `CN(C)C/C=C/C(=O)Nc1cc2c(Nc3ccc(F)c(Cl)c3)ncnc2cc1O[C@H]1CCOC1` [AFATINIB], the AC50 in test [4], in [5], in test [6], in test [9], in test [10] and in test [11] was above 30 µM in each case. For the same compound, the AC50 in [12] and in test [13] was above 30 µM in each case.
On to `CNCCc1ccc(OC(=O)C(C)C)c(OC(=O)C(C)C)c1` [IBOPAMINE], for which the AC50 is 18 µM in test [3]; above 30 µM in [4]; above 30 µM in [5]; above 30 µM in [6]; above 30 µM in [7]; above 30 µM in test [8]. The AC50 in test [9], in test [10], in [11], in test [12] and in [13] was above 30 µM in each case.
